Measured values published in ChEMBL document CHEMBL5625248, “Identification of unique indolylcyanoethylenyl sulfonylanilines as novel structural scaffolds of potential antibacterial agents” (Eur J Med Chem, 2023).
In brackets after ≈: the same amount, converted by molar mass.

Columns and labels:
Type in all cases: functional
Staphylococcus aureus [1] = experiment: Antibacterial activity against Staphylococcus aureus assessed as inhibition of bacterial growth incubated for 18 hrs by two fold broth microdilution assay
Enterococcus faecalis = experiment: Antibacterial activity against Enterococcus faecalis assessed as inhibition of bacterial growth incubated for 18 hrs by two fold broth microdilution assay
Klebsiella pneumoniae = experiment: Antibacterial activity against Klebsiella pneumoniae assessed as inhibition of bacterial growth incubated for 18 hrs by two fold broth microdilution assay
Acinetobacter baumannii = experiment: Antibacterial activity against Acinetobacter baumannii assessed as inhibition of bacterial growth incubated for 18 hrs by two fold broth microdilution assay
Staphylococcus aureus [2] = experiment: Antibacterial activity against methicilin-resistant Staphylococcus aureus N315 assessed as inhibition of bacterial growth incubated for 18 hrs by two fold broth microdilution assay
Escherichia coli [3] = experiment: Antibacterial activity against Escherichia coli ATCC 25922 assessed as inhibition of bacterial growth incubated for 18 hrs by two fold broth microdilution assay
Escherichia coli [4] = experiment: Antibacterial activity against Escherichia coli assessed as inhibition of bacterial growth incubated for 18 hrs by two fold broth microdilution assay
Staphylococcus aureus [5] = experiment: Antibacterial activity against Staphylococcus aureus ATCC 25923 assessed as inhibition of bacterial growth incubated for 18 hrs by two fold broth microdilution assay
Staphylococcus aureus [6] = experiment: Antibacterial activity against Staphylococcus aureus ATCC 29213 assessed as inhibition of bacterial growth incubated for 18 hrs by two fold broth microdilution assay
Pseudomonas aeruginosa [7] = experiment: Antibacterial activity against Pseudomonas aeruginosa assessed as inhibition of bacterial growth incubated for 18 hrs by two fold broth microdilution assay
Pseudomonas aeruginosa [8] = experiment: Antibacterial activity against Pseudomonas aeruginosa ATCC 27853 assessed as inhibition of bacterial growth incubated for 18 hrs by two fold broth microdilution assay

| Compound | MIC (Staphylococcus aureus [1]) [µg/mL] | MIC (Enterococcus faecalis) [µg/mL] | MIC (Klebsiella pneumoniae) [µg/mL] | MIC (Acinetobacter baumannii) [µg/mL] | MIC (Staphylococcus aureus [2]) [µg/mL] | MIC (Escherichia coli [3]) [µg/mL] | MIC (Escherichia coli [4]) [µg/mL] | MIC (Staphylococcus aureus [5]) [µg/mL] | MIC (Staphylococcus aureus [6]) [µg/mL] | MIC (Pseudomonas aeruginosa [7]) [µg/mL] | MIC (Pseudomonas aeruginosa [8]) [µg/mL] |
| --- | --- | --- | --- | --- | --- | --- | --- | --- | --- | --- | --- |
| C=CCn1cc(/C=C(\C#N)S(=O)(=O)c2ccc(N)cc2)c2ccccc21 | 64 (≈ 176 µM) | 8 (≈ 22 µM) | 8 (≈ 22 µM) | 64 (≈ 176 µM) | 32 (≈ 88 µM) | 16 (≈ 44 µM) | 8 (≈ 22 µM) | 4 (≈ 11 µM) | 4 (≈ 11 µM) | 64 (≈ 176 µM) | 8 (≈ 22 µM) |
| N#C/C(=C\c1c[nH]c2ccc([N+](=O)[O-])cc12)S(=O)(=O)c1ccc(N)cc1 | 64 (≈ 174 µM) | 128 (≈ 347 µM) | 4 (≈ 10.9 µM) | 64 (≈ 174 µM) | 128 (≈ 347 µM) | 8 (≈ 21.7 µM) | 128 (≈ 347 µM) | 128 (≈ 347 µM) | 64 (≈ 174 µM) | 64 (≈ 174 µM) | 16 (≈ 43.4 µM) |
| CCCCn1cc(/C=C(\C#N)S(=O)(=O)c2ccc(N)cc2)c2ccccc21 | 2 (≈ 5.27 µM) | 4 (≈ 10.5 µM) | 1 (≈ 2.64 µM) | 256 (≈ 675 µM) | 256 (≈ 675 µM) | 4 (≈ 10.5 µM) | 4 (≈ 10.5 µM) | 2 (≈ 5.27 µM) | 1 (≈ 2.64 µM) | 2 (≈ 5.27 µM) | 4 (≈ 10.5 µM) |
| CCN(CC)C(=O)Cn1cc(/C=C(\C#N)S(=O)(=O)c2ccc(NC(C)=O)cc2)c2ccccc21 | 256 (≈ 535 µM) | 128 (≈ 267 µM) | 64 (≈ 134 µM) | 128 (≈ 267 µM) | 128 (≈ 267 µM) | 128 (≈ 267 µM) | 32 (≈ 66.9 µM) | 8 (≈ 16.7 µM) | 2 (≈ 4.18 µM) | 32 (≈ 66.9 µM) | 256 (≈ 535 µM) |
| N#C/C(=C\c1c[nH]c2cc(Br)ccc12)S(=O)(=O)c1ccc(N)cc1 | 256 (≈ 636 µM) | 128 (≈ 318 µM) | 16 (≈ 39.8 µM) | 8 (≈ 19.9 µM) | 128 (≈ 318 µM) | 128 (≈ 318 µM) | 32 (≈ 79.5 µM) | 16 (≈ 39.8 µM) | 32 (≈ 79.5 µM) | 32 (≈ 79.5 µM) | 32 (≈ 79.5 µM) |
| N#C/C(=C\c1cn(Cc2ccccc2F)c2ccccc12)S(=O)(=O)c1ccc(N)cc1 | 256 (≈ 593 µM) | 64 (≈ 148 µM) | 128 (≈ 297 µM) | 256 (≈ 593 µM) | 64 (≈ 148 µM) | 8 (≈ 18.5 µM) | 256 (≈ 593 µM) | 8 (≈ 18.5 µM) | 4 (≈ 9.27 µM) | 64 (≈ 148 µM) | 128 (≈ 297 µM) |
| CC(=O)Nc1ccc(S(=O)(=O)/C(C#N)=C/c2cn(CC=C(C)C)c3ccccc23)cc1 | 4 (≈ 9.23 µM) | 4 (≈ 9.23 µM) | 16 (≈ 36.9 µM) | 8 (≈ 18.5 µM) | 64 (≈ 148 µM) | 8 (≈ 18.5 µM) | 8 (≈ 18.5 µM) | 8 (≈ 18.5 µM) | 8 (≈ 18.5 µM) | 64 (≈ 148 µM) | 8 (≈ 18.5 µM) |
| CCCCn1cc(/C=C(\C#N)S(=O)(=O)c2ccc(NC(C)=O)cc2)c2ccccc21 | 2 (≈ 4.74 µM) | 4 (≈ 9.49 µM) | 8 (≈ 19 µM) | 1 (≈ 2.37 µM) | 256 (≈ 607 µM) | 4 (≈ 9.49 µM) | 64 (≈ 152 µM) | 1 (≈ 2.37 µM) | 8 (≈ 19 µM) | 4 (≈ 9.49 µM) | 8 (≈ 19 µM) |
| CCOC(=O)Cn1cc(/C=C(\C#N)S(=O)(=O)c2ccc(NC(C)=O)cc2)c2ccccc21 | 128 (≈ 283 µM) | 128 (≈ 283 µM) | 64 (≈ 142 µM) | 128 (≈ 283 µM) | 256 (≈ 567 µM) | 256 (≈ 567 µM) | 32 (≈ 70.9 µM) | 64 (≈ 142 µM) | 16 (≈ 35.4 µM) | 8 (≈ 17.7 µM) | 128 (≈ 283 µM) |
| N#C/C(=C\c1cn(CC2CCCCC2)c2ccccc12)S(=O)(=O)c1ccc(N)cc1 | 16 (≈ 38.1 µM) | 8 (≈ 19.1 µM) | 4 (≈ 9.53 µM) | 32 (≈ 76.3 µM) | 1 (≈ 2.38 µM) | 2 (≈ 4.77 µM) | 4 (≈ 9.53 µM) | 2 (≈ 4.77 µM) | 2 (≈ 4.77 µM) | 4 (≈ 9.53 µM) | 2 (≈ 4.77 µM) |
